Experimental findings from patent US20120101110A1, “Diaza-spiro[5.5]undecanes” (priority 2010, published 2012) are described below.

The target in test [1] is T1, human orexin 2 receptors (Homo sapiens, UniProt O43614).
T1 sequence (O43614 1-444): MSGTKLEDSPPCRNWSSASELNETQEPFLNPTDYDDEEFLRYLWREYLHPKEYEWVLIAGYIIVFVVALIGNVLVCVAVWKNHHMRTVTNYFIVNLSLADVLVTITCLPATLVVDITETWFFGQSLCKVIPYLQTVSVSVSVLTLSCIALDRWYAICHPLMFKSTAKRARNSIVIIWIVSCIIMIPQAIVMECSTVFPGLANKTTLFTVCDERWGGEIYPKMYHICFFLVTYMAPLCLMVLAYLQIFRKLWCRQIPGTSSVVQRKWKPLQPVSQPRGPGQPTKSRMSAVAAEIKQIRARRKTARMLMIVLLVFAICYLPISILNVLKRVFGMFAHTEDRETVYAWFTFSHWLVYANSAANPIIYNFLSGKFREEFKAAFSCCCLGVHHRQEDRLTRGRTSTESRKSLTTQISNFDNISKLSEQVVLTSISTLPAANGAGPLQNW
Briefly: Radioligand binding assay ([3H]-SB649868 competition), hOx2R. As to conditions: competition with about 1 nM [3H]-SB649868; CHO or HEK cell membranes expressing human orexin 2 receptor; read-out: binding hOx2R Kd. On the procedure: (§1) The cell pellet was either stored at −80° C. or used directly. Before the experiments, cell membranes were re-suspended in binding assay buffer (10 mM HEPES, 0.5% (w/v) bovine serum albumin, pH 7.5) by homogenisation with a Polytron homogeniser at 50 Hz for 20 s. Cell membranes were also used as made available by commercial providers.
(§2) Bound radioactivity was measured, and data were analysed with the program XLFIT or Graphpad Prism. Protein concentration was determined according to the Bradford/BioRad Protein Assay Kit.
(§3) In competition experiments, cell homogenates (150 μl) were incubated in assay buffer (10 mM HEPES, pH 7.5, 0.5% (w/v) bovine serum albumin, 5 mM MgCl2, 1 mMCaCl2, and tween 0.05%) for 1 h at room temperature with about 1 nM of the radioligand [^3H]-SB649868, 66 Ci/mmole, 50 μl), and with various concentrations of compounds of the invention (50 μl) in triplicates; non-specific binding was determined in the presence of almorexant (10 μM).

The target in test [2] is T1, human orexin 2 receptors. Description: Calcium accumulation in cells (FLIPR), hOx2R. The note with it: cells expressing human orexin 2 receptor; inhibition of orexin A-induced calcium accumulation; Cheng and Prusoff correction. In kind it is cell-based.
Procedure: Cells expressing human orexin 1 or human orexin 2 receptors, were seeded at 8,000 cells/well in 384 well black-walled clear bottom, poly-D-lysine coated plates. After 24 h, the medium was removed and cells were washed once with phosphate buffered saline and serum-deprived overnight in assay buffer (130 mM NaCl, 5.4 mM KCl, 1.8 mM CaCl2, 0.8 mM MgSO4, 0.9 mM NaH2PO4, 25 mM glucose, 20 mM HEPES, pH 7.4) containing bovine serum albumin (1% w/v).
On the day of the experiment, the cells seeded in black plates were treated with assay buffer containing the Ca^2+sensitive fluorescent dye Fluo-4-AM (2 μM), and probenecid (0.1 mM). After 1 h plates were washed twice with, and resuspended in, assay buffer containing probenecid (0.1 mM) using a multi plate washer. […] Fluorescence measurements were then continued every 1 S for 120 S followed by every 4 S for 240 S.
The measurements were typically made in two sequences:
Compounds of formula I were tested usually in a concentration range from 10^−9 M to 10^−5 M. In the second round, performed one hour later (to allow for equilibration), Orexin A was tested either in the absence (calibration curves, Orexin A agonist controls) or in the presence of compounds of formula I to determine antagonism.
Test [3] deals with T2, human orexin 1 receptors (Homo sapiens, UniProt O43613).
T2 sequence (O43613 1-425): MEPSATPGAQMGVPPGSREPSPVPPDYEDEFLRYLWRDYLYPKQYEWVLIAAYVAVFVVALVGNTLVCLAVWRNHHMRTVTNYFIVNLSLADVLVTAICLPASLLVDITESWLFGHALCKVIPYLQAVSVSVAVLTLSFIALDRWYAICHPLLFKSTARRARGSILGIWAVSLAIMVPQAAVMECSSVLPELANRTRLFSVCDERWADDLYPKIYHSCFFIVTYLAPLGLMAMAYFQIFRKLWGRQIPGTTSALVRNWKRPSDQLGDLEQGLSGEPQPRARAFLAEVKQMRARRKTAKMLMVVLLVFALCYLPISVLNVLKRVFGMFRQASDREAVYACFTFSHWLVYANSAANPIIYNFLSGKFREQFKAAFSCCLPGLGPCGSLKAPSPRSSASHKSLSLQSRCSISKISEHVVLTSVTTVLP
Briefly: Radioligand binding assay ([3H]-SB649868 competition), hOx1R. The note with it: competition with about 1 nM [3H]-SB649868; CHO or HEK cell membranes expressing human orexin 1 receptor. The procedure:
as §1, §2
as §3, with “μM). Reactions were terminated by vacuum filtration, 3 washes of ice cold wash buffer (Tris-HCl pH 7.4/10 mM, with NaCl 154 mM). Competition data is expressed in Table 2 as Kd [μM].” for “μM).”

The target in test [4] is T2, human orexin 1 receptors. Briefly: Calcium accumulation in cells (FLIPR), hOx1R.

Some results are limits rather than exact numbers.

As usually defined, the Kd is the equilibrium constant for the complex coming apart. As usually defined, the Ki is a measure of affinity in units of concentration, obtained from inhibition or displacement. For orientation: inhibition means the change of the read-out against control, counted positive when it falls. As to `Cc1cncc(N2CCC3(CCCC(=O)N3Cc3c[nH]c4ccccc34)CC2)n1` [Example 7, 1-((1H-indol-3-yl)methyl)-9-(6-methylpyrazin-2-yl)-1,9-diazaspiro[5.5]undecan-2-one], the Kd in test [1] was found to be 698 nM; in test [3], 7440 nM. In addition, in test [2], the Ki was 86 nM. Besides, in test [4] (read-out: FLIPR hOx1R % inhibition value), the inhibition at 10 µM amounted to 14%.
Take `Cc1cccc(N2CCC3(CCCN(Cc4c[nH]c5ccccc45)C3=O)CC2)n1` [Example 9, 2-((1H-indol-3-yl)methyl)-9-(6-methylpyridin-2-yl)-2,9-diazaspiro[5.5]undecan-1-one]: the Kd in test [1] was found to be 265 nM; in test [3], 2430 nM. The Ki in test [2] turned out to be 54 nM; in test [4] it was 1560 nM.
In the same order, the values of `N#Cc1ccnc(N2CCC3(CCCN(Cc4c[nH]c5ccccc45)C3=O)CC2)c1` [Example 10, 2-(2-((1H-indol-3-yl)methyl)-1-oxo-2,9-diazaspiro[5.5]undecan-9-yl)isonicotinonitrile] are 116 nM, 1720 nM, 20 nM and 1190 nM.
For the molecule `Cc1cncc(N2CCC3(CCCN(Cc4c[nH]c5ccccc45)C3=O)CC2)n1` [Example 11, 2-((1H-indol-3-yl)methyl)-9-(6-methylpyrazin-2-yl)-2,9-diazaspiro[5.5]undecan-1-one], the Kd in test [1] is 244 nM; in test [3], 6590 nM. For the same molecule, the Ki amounted to 23 nM in test [2] and 1390 nM in test [4].
The like results for `Cc1ccnc(N2CCC3(CCCN(Cc4c[nH]c5ccccc45)C3=O)CC2)n1` [Example 12, 2-((1H-indol-3-yl)methyl)-9-(4-methylpyrimidin-2-yl)-2,9-diazaspiro[5.5]undecan-1-one] were, in that order, 56 nM, 1170 nM, 30 nM and 1500 nM.
The like results for `Cc1cc(C)nc(N2CCC3(CCCN(Cc4ccccc4-c4ccco4)C3=O)CC2)n1` [Example 15, 9-(4,6-dimethylpyrimidin-2-yl)-2-(2-(furan-2-yl)benzyl)-2,9-diazaspiro[5.5]undecan-1-one] were, in that order, 109 nM, 2830 nM, 13 nM and 855 nM.
The like results for `Cc1cc(C)nc(N2CCC3(CCCN(Cc4cccc5c4OCCO5)C3=O)CC2)n1` [Example 20, 2-((2,3-dihydrobenzo[b][1,4]dioxin-5-yl)methyl)-9-(4,6-dimethylpyrimidin-2-yl)-2,9-diazaspiro[5.5]undecan-1-one] were, in that order, 211 nM, 8550 nM, 42 nM and 2530 nM.
`Cc1cc(C)nc(N2CCC3(CCCN(Cc4cccc(-c5noc(C)n5)c4)C3=O)CC2)n1` [Example 22, 9-(4,6-dimethylpyrimidin-2-yl)-2-(3-(5-methyl-1,2,4-oxadiazol-3-yl)benzyl)-2,9-diazaspiro[5.5]undecan-1-one]: the Kd in test [1] stood at 151 nM; in test [3] it was 1300 nM. In addition, the Ki in test [2] is 31 nM; in test [4], 755 nM.
In the same order, the values of `Cc1cc(C#N)cc(N2CCC3(CCCN(Cc4cccc(-c5ncccn5)c4)C3=O)CC2)n1` [Example 28, 2-methyl-6-(1-oxo-2-(3-(pyrimidin-2-yl)benzyl)-2,9-diazaspiro[5.5]undecan-9-yl)isonicotinonitrile] are 150 nM, 5140 nM, 49 nM and 1110 nM.
The like results for `Cc1cc(C#N)cc(N2CCC3(CCCN(Cc4cccc(-c5ncc(C)o5)c4)C3=O)CC2)n1` [Example 29, 2-methyl-6-(2-(3-(5-methyloxazol-2-yl)benzyl)-1-oxo-2,9-diazaspiro[5.5]undecan-9-yl)isonicotinonitrile] were, in that order, 100 nM, 907 nM, 28 nM and 351 nM.
Consider `Cc1cc(C)nc(N2CCC3(CCCN(Cc4cccc(-c5ncccn5)c4)C3=O)CC2)n1` [Example 31, 9-(4,6-dimethylpyrimidin-2-yl)-2-(3-(pyrimidin-2-yl)benzyl)-2,9-diazaspiro[5.5]undecan-1-one], for which the figures for the Kd in test [1] and in test [3] were 145 nM and 3810 nM, respectively. The Ki in test [2] worked out at 92 nM; in test [4], 1610 nM.
As to `Cc1cc(C#N)nc(N2CCC3(CCCN(Cc4cccc(-c5ncccn5)c4)C3=O)CC2)n1` [Example 32, 6-methyl-2-(1-oxo-2-(3-(pyrimidin-2-yl)benzyl)-2,9-diazaspiro[5.5]undecan-9-yl)pyrimidine-4-carbonitrile], the Kd is 383 nM in test [1] and above 10000 nM in test [3]. Further, the Ki in test [2] was 59 nM; in test [4], 1860 nM.
Consider `N#Cc1ccnc(N2CCC3(CCCN(Cc4cccc(-c5ncccn5)c4)C3=O)CC2)n1` [Example 33, 2-(1-oxo-2-(3-(pyrimidin-2-yl)benzyl)-2,9-diazaspiro[5.5]undecan-9-yl)pyrimidine-4-carbonitrile], for which the Kd came out at 220 nM in test [1] and 744 nM in test [3]. For the same molecule, the Ki in test [2] came out at 37 nM; in test [4], 477 nM.
As for `N#Cc1cccc(N2CCC3(CCCN(Cc4cccc(-c5ncccn5)c4)C3=O)CC2)n1` [Example 34, 6-(1-oxo-2-(3-(pyrimidin-2-yl)benzyl)-2,9-diazaspiro[5.5]undecan-9-yl)picolinonitrile], the Kd in test [1] turned out to be 674 nM; in test [3], 2290 nM. For the same molecule, the values for the Ki in test [2] and in test [4] were 73 nM and 554 nM, respectively.
In the same order, the values of `N#Cc1ccnc(N2CCC3(CCCN(Cc4cccc(-c5ncccn5)c4)C3=O)CC2)c1` [Example 35, 2-(1-oxo-2-(3-(pyrimidin-2-yl)benzyl)-2,9-diazaspiro[5.5]undecan-9-yl)isonicotinonitrile] are 98 nM, 394 nM, 45 nM and 868 nM.
Take `Cc1cc(C)nc(N2CCC3(CCCN(Cc4cccc(-c5ncc(C)o5)c4)C3=O)CC2)n1` [Example 36, 9-(4,6-dimethylpyrimidin-2-yl)-2-(3-(5-methyloxazol-2-yl)benzyl)-2,9-diazaspiro[5.5]undecan-1-one]: the Kd in test [1] was determined as 89 nM; in test [3], 431 nM. Further, the values for the Ki in test [2] and in test [4] were 38 nM and 714 nM, respectively.
In the same order, the values of `Cc1cc(C#N)nc(N2CCC3(CCCN(Cc4cccc(-c5ncc(C)o5)c4)C3=O)CC2)n1` [Example 37, 6-methyl-2-(2-(3-(5-methyloxazol-2-yl)benzyl)-1-oxo-2,9-diazaspiro[5.5]undecan-9-yl)pyrimidine-4-carbonitrile] are 1160 nM, above 10000 nM, 79 nM and 1890 nM.
In the same order, the values of `Cc1ccnc(N2CCC3(CCCN(Cc4cccc(-c5ncc(C)o5)c4)C3=O)CC2)n1` [Example 38, 2-(3-(5-methyloxazol-2-yl)benzyl)-9-(4-methylpyrimidin-2-yl)-2,9-diazaspiro[5.5]undecan-1-one] are 177 nM, 1190 nM, 43 nM and 924 nM.
